# Data as given in paper PMC11073913 (Archiv der Pharmazie, 2024).
# Like-named read-outs stand apart in the source and are kept apart here.
# Tests used:
# [1] = test system: LPS-induced ROS production in RAW 264.7 cells; experiment: cells; conditions: Mus musculus, RAW264.7, 18 h, read-out: ROS (IC50)
# [2] = test system: LPS-induced IL-6 production in RAW 264.7 cells; conditions: cells treated with 25 μM compound, LPS-activated RAW 264.7
# [3] = test system: LPS-induced TNF-α production in RAW 264.7 cells; conditions: cells treated with 25 μM compound, LPS-activated RAW 264.7
SMILES,IC50 [1],IL-6 level [2],IL-6 level ([2]; listed as celecoxib),TNF-α level [3],TNF-α level ([3]; listed as celecoxib)
"COc1ccc2c(c1)c(CC(=O)O)c(C)n2C(=O)c1ccc(Cl)cc1 [Indomethacin, indomethacin, reference compound]",55 ± 1.26 µM,–,–,–,–
"Cc1ccc(-c2cc(C(F)(F)F)nn2-c2ccc(S(N)(=O)=O)cc2)cc1 [Celecoxib, celecoxib, reference compound]",44.6 ± 1.18 µM,24.64 ± 6.36 pg/mL,24.64 pg/mL,25.36 ± 6.364 pg/mL,25.36 pg/mL
